Assay results published in EP4610269A1, “UROKINASE PLASMINOGEN ACTIVATOR SURFACE RECEPTOR (UPAR) LIGANDS FOR DIAGNOSTIC OR THERAPEUTIC USE” (3B Pharmaceuticals GmbH, priority 2024, dated 2025).
Where a SMILES comes first, the peptide text is derived from it. Bridges are numbered along the chain shown (N, C = ends). Side-chain parts run from the residue outwards. [ ]: non-standard residue; d: D form. The star is where a group is joined. GdDOTA = Gd(III) DOTA conjugate, O=C([O-])CN1CCN(CC(=O)[O-])CCN(CC(=O)*)CCN(CC(=O)[O-])CC1.[Gd+3]; DOTA(In) = O=C1CN2CCN3CCN(CC(=O)*)CCN(CC2)CC(=O)[O][In]([O]1)[O]C(=O)C3; DOTA(Lu) = O=C1CN2CCN3CCN(CC(=O)*)CCN(CC2)CC(=O)[O][Lu]([O]1)[O]C(=O)C3; CH3O(CH2CH2O)11CH2CH2CO = COCCOCCOCCOCCOCCOCCOCCOCCOCCOCCOCCOCCC(=O)*; nBuCAyl = n-butyl-carbamoyl (N-terminal blocking group), CCCCNC(=O)*; DOTA = O=C(O)CN1CCN(CC(=O)O)CCN(CC(=O)*)CCN(CC(=O)O)CC1; PEG12 = NCCOCCOCCOCCOCCOCCOCCOCCOCCOCCOCCOCCOCCC(=O)O; Lys(Me3) = C[N+](C)(C)CCCC[C@H](N)C(=O)O; Hyp = O=C(O)[C@@H]1C[C@@H](O)CN1; hArg = N=C(N)NCCCC[C@H](N)C(=O)O; LaDOTA = La(III) DOTA conjugate; Pentanoyl(4-Me) = CC(C)CCC(=O)*; Cit = NC(=O)NCCC[C@H](N)C(=O)O; Butoxycarbonyl = CCCCOC(=O)*; Orn = NCCC[C@H](N)C(=O)O; dNMeA = CN[C@H](C)C(=O)O; Api = NC1(C(=O)O)CCNCC1; Nva = CCC[C@H](N)C(=O)O; Pentanoyl = CCCCC(=O)*; AEEA = NCCOCCOCC(=O)O

Assays:
[1] = target: T1, uPAR-expressing HEC-265 human endometrial adenocarcinoma cells (Homo sapiens, UniProt Q03405); assay: Competitive FACS binding assay; conditions: pIC50 category of FACS binding
T1 construct: Cell surface uPAR-expressing HEC-265 human endometrial adenocarcinoma cells; host or cells: HEC-265
T1 sequence (Q03405 23-335): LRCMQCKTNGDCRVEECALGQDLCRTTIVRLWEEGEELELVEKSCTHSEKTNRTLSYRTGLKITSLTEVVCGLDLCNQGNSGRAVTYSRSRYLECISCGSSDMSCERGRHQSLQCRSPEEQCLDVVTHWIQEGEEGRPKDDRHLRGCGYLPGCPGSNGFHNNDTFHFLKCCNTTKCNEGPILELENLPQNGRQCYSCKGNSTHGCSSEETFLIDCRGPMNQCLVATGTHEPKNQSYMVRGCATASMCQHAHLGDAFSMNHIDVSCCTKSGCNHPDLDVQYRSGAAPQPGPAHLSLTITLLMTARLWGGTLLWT
Outline: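 HEC-265 cells incubated 1 h at 4 °C with 10 nM biotinylated uPAR peptide tracer plus increasing test compound, then stained with APC-streptavidin on ice. Median APC fluorescence by flow cytometry; 4PL fit gives pIC50.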

human uPAR (uPAR-Fc) = target: T2, human uPAR (uPAR-Fc) (Homo sapiens, UniProt Q03405); assay: Surface plasmon resonance (SPR) assay, single cycle kinetics; format: binding; conditions: pKD category for uPAR SPR activity assay, uPAR-Fc on Protein A-Chip, 25°C; for Kd: read-out: pKD CAT (converted)
T2 construct: comprising amino acids Leu23-Arg303 according to UniProt entry Q03405.1; purchased R&D Systems 10378-UK-100
T2 sequence (Q03405 23-303): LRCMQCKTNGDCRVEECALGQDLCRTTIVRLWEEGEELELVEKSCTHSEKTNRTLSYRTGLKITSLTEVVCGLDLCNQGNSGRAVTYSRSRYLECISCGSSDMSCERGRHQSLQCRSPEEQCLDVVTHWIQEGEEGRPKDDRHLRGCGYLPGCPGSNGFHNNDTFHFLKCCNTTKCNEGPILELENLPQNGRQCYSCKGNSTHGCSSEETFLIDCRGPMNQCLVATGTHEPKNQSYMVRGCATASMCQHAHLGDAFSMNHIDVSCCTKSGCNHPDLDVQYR
Outline: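 uPAR-Fc (Leu23-Arg303 extracellular domains, human IgG1 Fc) captured on Protein A chip to ~2000 RU; single-cycle kinetics at 25°C in HEPES running buffer pH 7.4 with 0.1% DMSO. KD from double-referenced sensorgrams fitted to 1:1 Langmuir model, reported as pKD.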

[2] = Plasma stability assay (mouse plasma); format: in vitro ADME; conditions: 37°C, LC-MS quantification; for remaining at 6 h, 9.8 µM: mouse plasma (sodium citrate 3.7%), read-out: % intact compound remaining after 6h incubation Mouse plasma; for % intact compound remaining after 6h incubation Mouse plasma: mouse plasma (sodium citrate)
Experimental: In order to determine the stability of selected compounds of the invention in human and mouse plasma, a plasma stability assay was carried out. Such plasma stability assay measures degradation of compounds of the present invention in blood plasma. This is an important characteristic of a compound as compounds, with the exception of pro-drugs, which rapidly degrade in plasma, generally show poor in vivo efficacy. […] The stability is sufficient for the diagnostic, therapeutic and theragnostic use of these compounds according to the present invention.
The plasma stability samples were prepared by spiking 50 µl plasma aliquots (all sodium citrate 3.7%) with 1 µl of a 0.5 mM compound stock solution in DMSO. After vortexing the samples were incubated in a Thermomixer at 37°C for 0 and 6 hours. After incubation the samples were stored on ice until further treatment. All samples were prepared in duplicates.
A suitable internal standard was added to each sample (1 µl of a 0.5 mM stock solution in DMSO). Protein precipitation was performed using two different methods depending on the compound conditions as indicated in Table 13. • A) 250 µl of acetonitrile containing 1% trifluoroacetic acid was added. After incubation at room temperature for 30 min the precipitate was separated by centrifugation and 150 µl of the supernatant was diluted with 150 µl of 1% aqueous formic acid. • B) 150 µl of a zinc sulphate precipitation agent containing 78% 0.1 M zinc sulphate and 22% acetonitrile was added. After incubation at room temperature for 30 min the precipitate was separated by centrifugation. To 100 µl of the supernatant 10 µl of 1% formic acid was added followed by further incubation at 60°C for 10 min to complete the formation of the zinc chelate, if the compound contains a free DOTA moiety.
The determination of the analyte in the clean sample solutions was performed on an Agilent 1290 UHPLC system coupled to an Agilent 6530 Q-TOF mass spectrometer. The chromatographic separation was carried out on a Phenomenex BioZen XB-C18 HPLC column (50 x 2 mm, 1.7 µm particle size).
Two different elution gradients were applied using a mixture of 0.1% formic acid in water as eluent A and acetonitrile as eluent B: • A) 2% B to 41% in 7 min, 800 µl/min, 40°C. • B) 5% B to 50% B in 6 min, 800 µL/min, 40°C.
Mass spectrometric detection was performed in positive ion ESI mode by scanning the mass range from m/z 50 to 3000 with a sampling rate of 2 / sec.
From the mass spectrometric raw data the ion currents for the double or triple charged monoisotopic signal was extracted for both, the compound and the internal standard.
Quantitation was performed by external matrix calibration with internal standard using the integrated analyte signals.
Additionally, recovery was determined by spiking a pure plasma sample that only contained the internal standard after treatment with a certain amount of the compound.
Carry-over was evaluated by analysis of a blank sample (20% acetonitrile) after the highest calibration sample.
The result is stated as "% intact compound remaining after 6 h incubation" and means that from the amount of material at the start of the experiment the stated percentage is detected as unchanged material at the end of the experiment by LC-MS quantification. Since all compounds are more than 50% intact after 6 h they are considered as stable enough for diagnostic and therapeutic applications. Table 13: Results of the plasma stability assay

Compound | pIC50 CAT [1] | pKD CAT (human uPAR (uPAR-Fc)) | pKD CAT (human uPAR (uPAR-Fc); single cycle kinetics) | also measured
CC[C@H](C)[C@@H]1NC(=O)[C@@H](C)NC(=O)[C@@H]2CCCN2C(=O)[C@H](Cc2ccccc2)NC(=O)[C@H](Cc2ccc(O)cc2)NC(=O)[C@H](CCCCNC(=O)CN2CCN(CC(=O)O)CCN(CC(=O)O)CCN(CC(=O)O)CC2)NC(=O)[C@H](CCCNC(=N)N)NC(=O)[C@@H](NC(=O)CCC(C)C)CSSC[C@@H](C(N)=O)NC(=O)[C@H](CC(C)C)NC1=O [UPAR-176, iHex-[Cys-Arg-Lys(DOTA)-Tyr-Phe-Pro-ala-Ile-Leu-Cys]-NH2] ({Pentanoyl(4-Me)}-CRK(DOTA)YFP[dA]ILC-NH2; disulfide 1-10) | – | – | – | IC50 [1]: ≤ 10 nM; Kd (human uPAR (uPAR-Fc)): < 1.58 nM; remaining at 6 h, 9.8 µM [2]: 57%
CCCCC(=O)N[C@H]1CSSC[C@@H](C(N)=O)NC(=O)[C@H](CCC)NC(=O)[C@H]([C@@H](C)CC)NC(=O)[C@@H]2C[C@@H](O)CN2C(=O)[C@@H]2CCCN2C(=O)[C@H](Cc2ccccc2)NC(=O)[C@H](Cc2ccc(O)cc2)NC(=O)[C@H](CCCCNC(=O)CCOCCOCCOCCOCCOCCOCCOCCOCCOCCOCCOCCOCCNC(=O)CN2CCN(CC(=O)O)CCN(CC(=O)O)CCN(CC(=O)O)CC2)NC(=O)[C@H](CCCNC(N)=O)NC1=O [UPAR-200, Pent-[Cys-Cit-Lys(DOTA-PEG12)-Tyr-Phe-Pro-Hyp-Ile-Nva-Cys]-NHz] (Pentanoyl-C[Cit]K([PEG12-DOTA])YFP[Hyp]I[Nva]C-NH2; disulfide 1-10) | – | – | – | IC50 [1]: ≤ 10 nM; Kd (human uPAR (uPAR-Fc)): < 1.58 nM; remaining at 6 h, 9.8 µM [2]: > 95%
CC[C@H](C)[C@@H]1NC(=O)[C@@H](C)NC(=O)[C@@H]2CCCN2C(=O)[C@H](Cc2ccccc2)NC(=O)[C@H](Cc2ccc(O)cc2)NC(=O)[C@H](CCC(N)=O)NC(=O)[C@@H](C)NC(=O)[C@@H](NC(=O)[C@H](CC(C)C)NC(=O)COCCOCCNC(=O)CN2CCN(CC(=O)O)CCN(CC(=O)O)CCN(CC(=O)O)CC2)CSSC[C@@H](C(N)=O)NC(=O)[C@H](CC(C)C)NC1=O [UPAR-216, DOTA-O2Oc-Leu-[Cys-ala-Gln-Tyr-Phe-Pro-ala-Ile-Leu-Cys]-NH2] ({DOTA-AEEA}-LC[dA]QYFP[dA]ILC-NH2; disulfide 2-11) | – | – | – | IC50 [1]: ≥ 126 nM; Kd (human uPAR (uPAR-Fc)): > 100 nM; remaining at 6 h, 9.8 µM [2]: 84%
CCCCOC(=O)N[C@H]1CSSC[C@@H](C(N)=O)NC(=O)[C@H](CCC)NC(=O)[C@H]([C@@H](C)CC)NC(=O)[C@@H]2C[C@@H](O)CN2C(=O)[C@@H]2CCCN2C(=O)[C@H](Cc2ccccc2)NC(=O)[C@H](Cc2ccc(O)cc2)NC(=O)[C@H](CCCCNC(=O)CN2CCN(CC(=O)O)CCN(CC(=O)O)CCN(CC(=O)O)CC2)NC(=O)[C@H](CCCNC(N)=O)NC1=O [UPAR-275, Butoc-[Cys-Cit-Lys(DOTA)-Tyr-Phe-Pro-Hyp-Ile-Nva-Cys]-NH2] (Butoxycarbonyl-C[Cit]K(DOTA)YFP[Hyp]I[Nva]C-NH2; disulfide 1-10) | – | – | – | IC50 [1]: ≤ 10 nM; Kd (human uPAR (uPAR-Fc)): < 1.58 nM; remaining at 6 h, 9.8 µM [2]: 70%
Pent-[Cys-Cit-Lys(LaDOTA)-Tyr-Thi-Pro-Hyp-Ile-Nva-Cys]-NH2 [UPAR-166] | A (pIC50 values ≥8.0) | A (pKD values ≥ 8.8) | – | –
Pent-[Cys-Cit-Lys(LuDOTA)-Guf-Phe-Pro-Hyp-Ile-Nva-Cys]-NH2 [UPAR-350] | A (pIC50 values ≥8.0) | – | A (pKD values ≥ 8.8) | –
Pent-[Cys-Cit-Lys(LuDOTA)-Nif-Phe-Pro-Hyp-Ile-Nva-Cys]-NH2 [UPAR-352] | A (pIC50 values ≥8.0) | – | A (pKD values ≥ 8.8) | –
Pent-[Cys-Cit-Lys(LuDOTA)-Tyr-Egm-Pro-Hyp-Ile-Nva-Cys]-NH2 [UPAR-254] | A (pIC50 values ≥8.0) | A (pKD values ≥ 8.8) | – | –
Pent-[Cys-Cit-Lys(LuDOTA)-Tyr-Phe-Pro-nma-Ile-Nva-Cys]-NH2 (Pentanoyl-C[Cit]K(DOTA(Lu))YFP[dNMeA]I[Nva]C-NH2; disulfide 1-10; not fully specified; also: Lu(III) complexed by DOTA) [UPAR-151] | A (pIC50 values ≥8.0) | A (pKD values ≥ 8.8) | – | –
Pent-[Cys-Har-Lys(GdDOTA)-Tyr-Phe-Pro-Hyp-Ile-Nva-Cys]-NH2 (Pentanoyl-C[hArg]K(GdDOTA)YFP[Hyp]I[Nva]C-NH2; disulfide 1-10; not fully specified; also: Gd(III) complexed by DOTA) [UPAR-376] | A (pIC50 values ≥8.0) | – | A (pKD values ≥ 8.8) | –
Pent-[Cys-KMe3-Lys(LaDOTA)-Tyr-Phe-Pro-Hyp-Ile-Nva-Cys]-NH2 (Pentanoyl-C[Lys(Me3)]K(LaDOTA)YFP[Hyp]I[Nva]C-NH2; disulfide 1-10; not fully specified; also: La(III) complexed by DOTA) [UPAR-183] | A (pIC50 values ≥8.0) | A (pKD values ≥ 8.8) | – | –
Pent-[Cys-Orn(mPEG12)-Lys(InDOTA)-Tyr-Phe-Pro-Hyp-Ile-Nva-Cys]-NH2 (Pentanoyl-C[Orn](CH3O(CH2CH2O)11CH2CH2CO)K(DOTA(In))YFP[Hyp]I[Nva]C-NH2; disulfide 1-10; not fully specified; also: In(III) complexed by DOTA) [UPAR-311] | A (pIC50 values ≥8.0) | A (pKD values ≥ 8.8) | – | –
Succinyl-Nva-[Cys-Cit-Lys(GdDOTA)-Tyr-Phe-Pro-Hyp-Ile-Nva-Cys]-NH2 [UPAR-460] | A (pIC50 values ≥8.0) | – | A (pKD values ≥ 8.8) | –
iHex-[Cys-Arg-Gln-Tyr-Phe-Pro-Apc(GdDOTA)-Ile-Leu-Cys]-NH2 ({Pentanoyl(4-Me)}-CRQYFP[Api](GdDOTA)ILC-NH2; disulfide 1-10 (inferred); not fully specified) [UPAR-457] | A (pIC50 values ≥8.0) | – | – | % intact compound remaining after 6h incubation Mouse plasma [2]: 64%
iHex-[Cys-Lys(LuDOTA)-Gln-Tyr-Phe-Pro-ala-Ile-Leu-Cys]-NH2 ({Pentanoyl(4-Me)}-CK(DOTA(Lu))QYFP[dA]ILC-NH2; disulfide 1-10 (inferred); not fully specified) [UPAR-408] | A (pIC50 values ≥8.0) | – | – | % intact compound remaining after 6h incubation Mouse plasma [2]: 75%
nBuCAyl-[Cys-Cit-Lys(LuDOTA)-Tyr-Phe-Pro-Hyp-Ile-Nva-Cys]-NH2 (nBuCAyl-C[Cit]K(DOTA(Lu))YFP[Hyp]I[Nva]C-NH2; disulfide 1-10; also: Lu(III) chelated by DOTA on Lys3) [UPAR-464] | A (pIC50 values ≥8.0) | – | A (pKD values ≥ 8.8) | –
